Laboratory results taken from ChEMBL document CHEMBL1131826, “Targeting nitric oxide to cancer cells: cytotoxicity studies of glyco-S-nitrosothiols” (1999).
Several values for one entry are separate records, joined by “and”; a condition that tells them apart may be missing. Equal entries are not always repeated.

How the values were obtained:
Format in all cases: functional
DU-145 [1] = assay: Cytotoxicity was evaluated against DU-145 human prostate cancer cells at 180 uM concentration
DU-145 [2] = assay: Cytotoxicity was evaluated against DU-145 human prostate cancer cells at 35 uM concentration
DU-145 [3] = assay: Cytotoxicity was evaluated against DU-145 human prostate cancer cells at 60 uM concentration
DU-145 [4] = assay: Cytotoxicity towards DU145 human prostate cancer cell was expressed as median effect dose (MED)
DU-145 [5] = assay: Cytotoxicity was evaluated against DU-145 human prostate cancer cells at 1.5 log dose
DU-145 [6] = assay: Cytotoxicity was evaluated against DU-145 human prostate cancer cells at 100 uM concentration
DU-145 [7] = assay: Cytotoxicity was evaluated against DU-145 human prostate cancer cells at 110 uM concentration
DU-145 [8] = assay: Cytotoxicity was evaluated against DU-145 human prostate cancer cells at 1.4 log dose
DU-145 [9] = assay: Cytotoxicity was evaluated against DU-145 human prostate cancer cells at 2 log dose
DU-145 [10] = assay: Cytotoxicity was evaluated against DU-145 human prostate cancer cells at 20 uM concentration
DU-145 [11] = assay: Cytotoxicity was evaluated against DU-145 human prostate cancer cells at 50 uM concentration
DU-145 [12] = assay: Cytotoxicity was evaluated against DU-145 human prostate cancer cells at 0.7 log dose
DU-145 [13] = assay: Cytotoxicity was evaluated against DU-145 human prostate cancer cells at 1.7 log dose
DU-145 [14] = assay: Cytotoxicity was evaluated against DU-145 human prostate cancer cells at 10 uM concentration
DU-145 [15] = assay: Cytotoxicity was evaluated against DU-145 human prostate cancer cells at 13 uM concentration
DU-145 [16] = assay: Cytotoxicity was evaluated against DU-145 human prostate cancer cells at 15 uM concentration
DU-145 [17] = assay: Cytotoxicity was evaluated against DU-145 human prostate cancer cells at 0.3 log dose

Structure (SMILES)	Surviving fraction (DU-145 [1])	Surviving fraction (DU-145 [2])	Surviving fraction (DU-145 [3])	MED (DU-145 [4]) [µM]	Log effect (DU-145 [5])	Surviving fraction (DU-145 [6])	Surviving fraction (DU-145 [7])	Log effect (DU-145 [8])	Log effect (DU-145 [9])	Surviving fraction (DU-145 [10])	Surviving fraction (DU-145 [11])	Log effect (DU-145 [12])	Log effect (DU-145 [13])	Surviving fraction (DU-145 [14])	Surviving fraction (DU-145 [15])	Surviving fraction (DU-145 [16])	Log effect (DU-145 [17])
CC(=O)N[C@@H](C(=O)O)C(C)(C)SN=O	0.2	1	1	110	0	0.6	0.5	0									
CC(=O)N[C@@H](C(=O)NC1C(O)OC(CO)C(O)C1O)C(C)(C)SN=O (stereo not given in full)				32					0 and -0.01								
CC(=O)N[C@@H](C(=O)N[C@]1(CO)O[C@H](CO)[C@@H](O)[C@@H]1O)C(C)(C)SN=O				8.5				0.6		0.45	0.2	-0.03	0.9	0.6	0.55	0.5	-0.06
